Data: patent publication US8568784B2, “Nanoparticles for delivery of active agents” (Morehouse School of Medicine, priority 2006, dated 2013)

Assay: Percent entrapment and loading studies of particles
Assay type: physicochemical
Conditions: entrapped in PCL-XP particles

Row | SMILES | entrapment efficiency [%] | loading per weight of the particles [%]
1 | O=S(=O)([O-])c1cc(S(=O)(=O)Cl)ccc1C1=c2cc3c4c(c2Oc2c1cc1c5c2CCCN5CCC1)CCC[N+]=4CCC3 [TR, Texas Red] | ~100 | ~20
2 | N.N.[Cl][Pt][Cl] [cisplatin] | ~100 | ~20
3 | [Gd] [gadolinium] | ~100 | ~20
